The source made the active and inactive calls. Cut-off read from the data, not from the text of the source, for most assays here: actives have a measured EC50 and inactives only a lower limit.

The test system of one experiment is Staphylococcus aureus. The experiment can be described thus: Inhibitors of Bacterial Quorum Sensing Structure Activity Relationship (SAR) Analysis: Dose Response Assay. [Related pubchem assays: 700, 527 ]. It counts as functional, organism-based.
Experiment [1] in a line: inhibitors of firefly luciferase expression or activity, dose response, H4 neuroglioma cells, luminescence (AID 1990). It counts as functional, cell-based.
The nature of experiment [2]: luciferase reporter signal reduction – luminescence, H4-C neuroglioblastoma cells, dose response (AID 2458).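 Note: H4 neuroglioblastoma cells stably carrying a luciferase reporter gene fusion.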 It counts as functional, cell-based. (In a reporter assay the amount or activity of a reporter protein is the signal.)
Experiment [3] relates to BJ. Nature of the experiment: cytotoxicity toward BJ-TERT fibroblasts, dose response, cell-based, RAS-independent, luminescence (AID 1933). It counts as functional. Conditions: Homo sapiens.
Experiment [4] concerns the target T1, Luciferin 4-monooxygenase (Photinus pyralis, UniProt P08659). Nature of the experiment: Counter Screen for Luciferase-based Assay Positives. [Related pubchem assays: 620, 618, 411 ]. (In general: The purpose of a counterscreen is to sort out artefacts and off-target activity.)
For experiment [5], the system named is HEK293. Nature of the experiment: PMA/Ionomycin induced NF-kB luciferase assay in 293- NF-kB-Luc stable cells. [Related pubchem assays: 1299, 1270, 1295, 1375, 1287, 1281, 1293, 1291, 1289, 1280, 465, 1364, 1282, 1372, 1365, 1370, 1367, 1366, 1269, 1373, 1292, 1290, 1302, 1371, 1283, 1271, 1294, 1374, 1368, 1369 ]. Format: functional, cell-based. Conditions: Homo sapiens.

In experiment [6] the target is T1, Luciferin 4-monooxygenase. The experiment can be described thus: In vitro luciferase assay using purified luciferase. [Related pubchem assays: 1299, 1270, 1295, 1375, 1287, 1281, 1293, 1291, 1289, 1280, 465, 1364, 1282, 1372, 1365, 1370, 1367, 1366, 1266, 1373, 1292, 1290, 1302, 1371, 1283, 1271, 1294, 1374, 1368, 1369 ].
A further experiment is described as follows: cells. It counts as functional, cell-based.
Experiment [7] is described as follows: inhibitors of SNCA 5'UTR-driven reporter translation, confirmation, H4 neuroglioma cells, luminescence (AID 1988). Format: functional, cell-based.
Experiment [8] has as its target T1, Luciferin 4-monooxygenase. The experiment can be described thus: firefly luciferase enzyme inhibitors, dose response, biochemical, luminescence (AID 1891).
Experiment [9] can be described thus: Luminescence Cell-Based Dose Confirmation HTS to Identify Inhibitors of Platelet Dense Granule Release. [Related pubchem assays: 1663 (Primary HTS), 1678 (Summary of Project)]. It counts as functional.
A further experiment deals with HT-1080. Nature of the experiment: cytotoxicity in HT1080 fibrosarcoma cells, cell-based, fluorescence readout (AID 620). Format: functional. The settings on record: Homo sapiens.
The subject of experiment [10] is HEK293. The experiment can be described thus: Cytotoxicity assay in HEK293 cells. [Related pubchem assays (depositor defined):AID1266, AID1269, AID1270, AID1271, AID1280, AID1281, AID1282, AID1283, AID1287, AID1289, AID1290, AID1291, AID1292, AID1293, AID1294, AID1295, AID1299, AID1302, AID1364, AID1365, AID1366, AID1367, AID1369, AID1370, AID1371, AID1372, AID1373, AID1374, AID1375, AID1384 …. Format: functional, cell-based. The settings on record: Homo sapiens.

Experiment [11] relates to BJ. The experiment can be described thus: cytotoxicity toward BJ-TERT-LT-ST fibroblasts, dose response, cell-based, RAS-independent, luminescence (AID 1935).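 Note: BJ fibroblasts immortalized with TERT plus LT and ST oncogenes.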 Format: functional. The settings on record: Homo sapiens.
A short description of experiment [12]: cytotoxicity toward DRD oncogenic fibroblasts, dose response, cell-based, non-viral oncogenic, luminescence (AID 1934). Format: functional. The settings on record: Homo sapiens.
Experiment [13] deals with Mitogen-activated protein kinase 10 (Homo sapiens, UniProt P53779). Nature of the experiment: Dose response biochemical screening assay for inhibitors of c-Jun N-Terminal Kinase 3 (JNK3). [Related pubchem assays: 746 ].
Mitogen-activated protein kinase 10, sequence (P53779 whole entry): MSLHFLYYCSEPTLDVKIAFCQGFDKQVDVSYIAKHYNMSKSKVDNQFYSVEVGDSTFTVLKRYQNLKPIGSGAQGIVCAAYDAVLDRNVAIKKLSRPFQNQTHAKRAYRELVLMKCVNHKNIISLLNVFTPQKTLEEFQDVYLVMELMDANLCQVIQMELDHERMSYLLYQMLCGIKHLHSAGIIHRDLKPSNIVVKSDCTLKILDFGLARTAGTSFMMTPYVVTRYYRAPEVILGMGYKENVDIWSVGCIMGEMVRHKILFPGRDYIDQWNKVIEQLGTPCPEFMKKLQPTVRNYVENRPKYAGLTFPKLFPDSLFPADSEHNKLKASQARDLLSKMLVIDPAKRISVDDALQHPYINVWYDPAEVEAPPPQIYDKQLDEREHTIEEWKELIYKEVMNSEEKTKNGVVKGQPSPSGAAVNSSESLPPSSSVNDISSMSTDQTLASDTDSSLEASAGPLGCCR
The nature of experiment [14]: inhibitors of SNCA 5'UTR-driven translation, confirmation, luminescence, H4 neuroglioblastoma cells, dose confirmation (AID 2454).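 Note: H4 neuroglioblastoma cells carrying an alpha-synuclein 5'UTR luciferase reporter; potency for inhibition of the luciferase signal.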 Format: functional, cell-based.
Experiment [15] can be described thus: cytotoxicity in HEK-293T cells, dose response, cytotoxicity control for TCR NF-kB inhibitor project, luminescence, T-cell screen hits (AID 489026).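 Note: cells exposed to compound about 14 hours before the viability readout.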 Format: functional, cell-based.
In experiment [16] the test system is BJ. The experiment can be described thus: cytotoxicity toward Ras-transformed BJeLR fibroblasts, dose response, cell-based, alamar blue fluorescence, cherrypicked samples (AID 2631).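 Note: confirmatory dose-response assay in RAS-dependent BJ fibroblasts engineered with TERT, LT and ST, with cytotoxicity read by fluorescence.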 Format: functional. The settings on record: Homo sapiens. Background: Resazurin is reduced to fluorescent resorufin, in cell work by metabolically active cells.
Another experiment has as its system HeLa. Nature of the experiment: HeLa cell cytotoxicity, dose response, cytotoxicity control, 24 h, cherry-picked samples (AID 504726).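 Note: potency for cytotoxicity as loss of luminescence signal.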 Format: functional, cell-based. The settings on record: Homo sapiens.
For the next experiment, the target named is Trypsin (Sus scrofa, UniProt P00761). The experiment can be described thus: porcine trypsin inhibitors, dose response, selectivity assay for Rce1 protease inhibitor project, biochemical, quenched peptide fluorescence, cherry-pick (AID 488789).
Trypsin, sequence (P00761 whole entry): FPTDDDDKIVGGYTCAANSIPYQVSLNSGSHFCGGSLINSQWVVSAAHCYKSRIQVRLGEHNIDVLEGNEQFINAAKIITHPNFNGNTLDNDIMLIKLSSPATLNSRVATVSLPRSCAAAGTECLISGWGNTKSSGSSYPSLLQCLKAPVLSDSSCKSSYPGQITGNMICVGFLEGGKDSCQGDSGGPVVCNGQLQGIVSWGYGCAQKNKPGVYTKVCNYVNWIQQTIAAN
A further experiment deals with T2, CAAX prenyl protease 2 (Homo sapiens, UniProt Q9Y256).
T2 sequence (Q9Y256 whole entry): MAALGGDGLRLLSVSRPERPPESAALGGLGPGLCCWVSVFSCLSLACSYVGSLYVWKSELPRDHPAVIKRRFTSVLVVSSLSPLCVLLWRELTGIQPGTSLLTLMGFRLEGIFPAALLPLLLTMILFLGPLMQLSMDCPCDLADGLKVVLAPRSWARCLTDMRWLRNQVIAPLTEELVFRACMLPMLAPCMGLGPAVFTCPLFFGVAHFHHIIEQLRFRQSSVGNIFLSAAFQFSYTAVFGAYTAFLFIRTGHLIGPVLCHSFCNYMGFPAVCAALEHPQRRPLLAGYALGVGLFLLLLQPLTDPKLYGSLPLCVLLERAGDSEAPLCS
The experiment can be described thus: human Rce1 protease inhibitors, dose response, biochemical, yeast membranes, quenched-peptide fluorescence, cherry-pick (AID 588849).

The target of experiment [17] is T3, Neuropeptides B/W receptor type 1 (Homo sapiens, UniProt P48145).
T3 sequence (P48145 whole entry): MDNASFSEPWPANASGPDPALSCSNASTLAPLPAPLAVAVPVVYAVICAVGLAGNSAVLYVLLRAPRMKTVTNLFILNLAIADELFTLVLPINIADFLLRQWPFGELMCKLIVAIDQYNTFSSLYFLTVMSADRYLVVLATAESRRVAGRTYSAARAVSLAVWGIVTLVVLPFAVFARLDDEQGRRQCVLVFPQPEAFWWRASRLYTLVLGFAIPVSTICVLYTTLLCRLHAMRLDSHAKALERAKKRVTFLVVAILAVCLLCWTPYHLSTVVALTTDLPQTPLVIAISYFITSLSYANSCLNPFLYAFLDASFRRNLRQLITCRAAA
Nature of the experiment: Fluorescence-based dose response cell-based high throughput screening assay to identify antagonists of the G-protein coupled receptor 7 (GPR7). [Related pubchem assays: 1952 (Screening assay (GPR7 antagonists).), 1880 (Summary AID.)]. Format: functional.

The target of experiment [18] is Melanin-concentrating hormone receptor 1 (Homo sapiens, UniProt Q99705). The experiment can be described thus: Fluorescence-based counterscreen for antagonists of the G-protein coupled receptor 7 (GPR7): cell-based high throughput dose response assay to identify antagonists of the melanin-concentrating hormone receptor 1 (MCHR1). It counts as functional.
Melanin-concentrating hormone receptor 1, sequence (Q99705 whole entry): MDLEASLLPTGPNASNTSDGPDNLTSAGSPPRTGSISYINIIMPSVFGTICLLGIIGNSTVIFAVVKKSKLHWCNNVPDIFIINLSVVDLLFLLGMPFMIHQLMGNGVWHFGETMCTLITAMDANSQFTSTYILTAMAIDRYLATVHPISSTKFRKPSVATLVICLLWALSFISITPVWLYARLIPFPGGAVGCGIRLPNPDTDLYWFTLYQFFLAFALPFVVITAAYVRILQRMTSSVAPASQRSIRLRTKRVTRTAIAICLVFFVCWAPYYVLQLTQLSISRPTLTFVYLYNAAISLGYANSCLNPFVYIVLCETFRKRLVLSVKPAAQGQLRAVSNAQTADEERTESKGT
Experiment [19] deals with T4, Short transient receptor potential channel 4 (Mus musculus, UniProt Q9QUQ5).
T4 sequence (Q9QUQ5 whole entry): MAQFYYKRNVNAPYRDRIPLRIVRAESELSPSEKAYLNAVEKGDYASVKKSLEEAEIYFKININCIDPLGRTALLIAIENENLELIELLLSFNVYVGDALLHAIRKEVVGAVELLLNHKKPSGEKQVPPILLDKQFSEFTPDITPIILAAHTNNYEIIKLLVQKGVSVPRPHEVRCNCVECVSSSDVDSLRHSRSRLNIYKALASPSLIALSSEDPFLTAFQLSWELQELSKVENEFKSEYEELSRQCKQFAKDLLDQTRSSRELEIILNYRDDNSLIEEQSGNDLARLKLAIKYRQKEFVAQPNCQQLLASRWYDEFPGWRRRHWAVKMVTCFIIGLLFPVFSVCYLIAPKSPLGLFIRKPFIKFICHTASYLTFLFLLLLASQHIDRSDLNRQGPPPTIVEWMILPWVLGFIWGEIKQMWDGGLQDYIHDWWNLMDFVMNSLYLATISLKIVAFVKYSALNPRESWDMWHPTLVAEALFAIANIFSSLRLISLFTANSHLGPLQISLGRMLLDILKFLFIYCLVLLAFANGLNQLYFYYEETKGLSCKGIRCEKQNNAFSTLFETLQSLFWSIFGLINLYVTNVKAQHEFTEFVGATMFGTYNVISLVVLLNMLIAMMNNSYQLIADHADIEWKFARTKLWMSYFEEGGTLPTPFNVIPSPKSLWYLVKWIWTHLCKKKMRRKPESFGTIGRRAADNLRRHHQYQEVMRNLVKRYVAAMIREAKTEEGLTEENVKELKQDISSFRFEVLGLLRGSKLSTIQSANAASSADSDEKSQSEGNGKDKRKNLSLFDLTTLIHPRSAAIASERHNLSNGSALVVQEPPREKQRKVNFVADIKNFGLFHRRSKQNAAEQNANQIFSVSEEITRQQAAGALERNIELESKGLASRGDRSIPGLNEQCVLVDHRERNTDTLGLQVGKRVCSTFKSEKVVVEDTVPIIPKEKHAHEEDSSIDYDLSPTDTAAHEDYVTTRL
Nature of the experiment: mouse TRPC4 channel activators, dose response, cell-based, HEK293 TRPC4/mu-opioid, Fluo-4 calcium (AID 434937). Format: functional.

T1 sequence (P08659 whole entry): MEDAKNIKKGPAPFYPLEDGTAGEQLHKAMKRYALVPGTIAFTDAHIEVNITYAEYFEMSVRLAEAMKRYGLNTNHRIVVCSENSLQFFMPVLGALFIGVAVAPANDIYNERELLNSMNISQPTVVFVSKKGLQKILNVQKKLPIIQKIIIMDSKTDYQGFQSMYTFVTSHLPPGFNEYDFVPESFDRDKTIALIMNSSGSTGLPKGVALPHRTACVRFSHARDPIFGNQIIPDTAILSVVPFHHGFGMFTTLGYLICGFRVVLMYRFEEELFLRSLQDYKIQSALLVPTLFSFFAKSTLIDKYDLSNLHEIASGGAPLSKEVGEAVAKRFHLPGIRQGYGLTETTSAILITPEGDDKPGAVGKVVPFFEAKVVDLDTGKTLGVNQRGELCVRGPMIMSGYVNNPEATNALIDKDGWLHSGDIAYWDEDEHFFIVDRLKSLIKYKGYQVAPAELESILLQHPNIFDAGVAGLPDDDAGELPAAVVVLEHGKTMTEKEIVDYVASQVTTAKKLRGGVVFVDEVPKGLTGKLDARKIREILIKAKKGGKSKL

For orientation: IC50 means the concentration needed to halve the response being measured. On to `COc1ccccc1N1CCN(C(CNC(=O)c2cccc(Cl)c2)c2cccnc2)CC1` (stereo not given), for which the half-inhibitory concentration (IC50) in the experiment on Staphylococcus aureus is 0.457 µM (active).
One may read the EC50 as the concentration at which the effect is half-maximal. In the case of `CCCN1C=CC(=C2C(=O)c3ccccc3C2=O)C=C1`, the concentration giving a half-maximal response (EC50) in [1] is < 0.195 µM (active); in experiment [2], 0.127 µM (active); in the experiment with BJ [3], 6.69 µM (active); in [4] it was 0.98 µM (active); in the experiment on HEK293 [5], 0.774 µM (active); in experiment [6] it was 1.09 µM (active). Further, the EC50 in the experiment “cells” is 0.135 µM (active); in experiment [7], < 0.1 µM (active); in [8], 0.719 µM (active); in experiment [9], 7.02 µM (active); with HT-1080 it was > 50 µM (not active); in the experiment on HEK293 [10] it was 0.589 µM (active). Further, the concentration for a half-maximal effect (EC50) with BJ [11] is 18.2 µM (active); in experiment [12], 6.78 µM (active); in [14], 0.139 µM (active); with BJ [16], > 133 µM (inactive). The half-maximal inhibitory concentration (IC50) in experiment [13] is 9.84 µM (active); in experiment [15], > 80 µM (inactive).
By AC50 is commonly meant the midpoint of the concentration-response curve, whichever way the signal moves. Turning to `COc1cccc2[nH]c(C(=O)NC(C)c3ccccc3)cc12` (stereo not given), the half-maximal activity concentration (AC50) was 182 µM (active) in the experiment with HeLa, 11.2 µM (active) at Trypsin and 12.1 µM (active) on CAAX prenyl protease 2.
On to `CC(NCCC1(Cc2ccccc2Cl)CCOC(C)(C)C1)c1cccs1` (stereo not given), for which the half-inhibitory concentration (IC50) in experiment [17] is 12.7 µM (not active); in [18], 13.3 µM (not active). Besides, the 50% effective concentration (EC50) in experiment [19] was 5.31 µM (active).

(Values after ChEMBL document CHEMBL1201862, “PubChem BioAssay data set” (2004).)
